Source: ChEMBL document CHEMBL1944581, “Synthesis and characterization of fluorinated homocysteine derivatives as potential molecular probes for ¹⁹F magnetic resonance spectroscopy and imaging” (Bioorg Med Chem Lett, 2011)

Tests used:
Assay type in all cases: ADME
Albumin [1] = target: T1, Albumin (Homo sapiens, UniProt P02768); assay: Binding affinity to human serum albumin in phosphate buffer assessed as N-homocysteinylation of protein at 6.2 mM at pH 7.43 at 37 degC after 18 hrs by SDS-PAGE-based 19F-NMR spectroscopy; settings: isolated protein, pH 7.43, 18 h, 6200 µM
Albumin [2] = target: T1, Albumin; assay: Binding affinity to human serum albumin in phosphate buffer assessed as N-homocysteinylation of protein by MALDI-TOF scpectroscopy; settings: isolated protein
Albumin [3] = target: T1, Albumin; assay: Binding affinity to human serum albumin in human plasma assessed as protein N-homocysteinylation level at 37 degC for 27 hrs by SDS-PAGE-based 19F-NMR spectroscopy

Measured: Activity

T1 sequence (P02768 whole entry): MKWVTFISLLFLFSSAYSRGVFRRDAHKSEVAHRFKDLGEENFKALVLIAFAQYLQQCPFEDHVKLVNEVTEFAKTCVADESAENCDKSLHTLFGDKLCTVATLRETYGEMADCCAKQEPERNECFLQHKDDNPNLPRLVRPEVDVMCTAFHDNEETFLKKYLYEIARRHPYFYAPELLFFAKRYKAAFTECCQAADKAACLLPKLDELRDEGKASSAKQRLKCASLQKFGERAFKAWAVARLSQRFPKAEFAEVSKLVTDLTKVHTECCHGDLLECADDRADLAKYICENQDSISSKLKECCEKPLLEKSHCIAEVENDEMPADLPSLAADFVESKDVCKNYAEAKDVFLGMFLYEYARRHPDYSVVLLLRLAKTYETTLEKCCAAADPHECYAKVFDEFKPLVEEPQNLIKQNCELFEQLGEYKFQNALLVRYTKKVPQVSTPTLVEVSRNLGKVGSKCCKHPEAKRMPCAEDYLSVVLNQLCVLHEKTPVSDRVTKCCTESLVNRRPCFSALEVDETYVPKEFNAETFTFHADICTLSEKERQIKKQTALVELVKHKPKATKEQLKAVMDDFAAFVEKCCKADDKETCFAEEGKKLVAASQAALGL

O=C1SCCC1NC(=O)C(F)(F)F (stereo not drawn)
Active: all assays above
